Measurements: ChEMBL document CHEMBL1153245, “A profile of the in vitro anti-tumor activity of imidazolium-based ionic liquids” (2010)

What was measured:
Type in all cases: functional
SN12C = assay: Anticancer activity against human SN12C cells assessed cell growth at 10 uM after 48 hrs by sulforhodamine B assay relative to control
OVCAR-5 = assay: Anticancer activity against human OVCAR5 cells assessed cell growth at 10 uM after 48 hrs by sulforhodamine B assay relative to control
PC-3 = assay: Anticancer activity against human PC3 cells assessed cell growth at 10 uM after 48 hrs by sulforhodamine B assay relative to control
A549 = assay: Anticancer activity against human A549 cells assessed cell growth at 10 uM after 48 hrs by sulforhodamine B assay relative to control
SF-268 = assay: Anticancer activity against human SF268 cells assessed cell growth at 10 uM after 48 hrs by sulforhodamine B assay relative to control
KM12 = assay: Anticancer activity against human KM12 cells assessed cell growth at 10 uM after 48 hrs by sulforhodamine B assay relative to control
NCI-H23 = assay: Anticancer activity against human NCI-H23 cells assessed cell growth at 10 uM after 48 hrs by sulforhodamine B assay relative to control
UO-31 = assay: Anticancer activity against human UO31 cells assessed cell growth at 10 uM after 48 hrs by sulforhodamine B assay relative to control
U-251 = assay: Anticancer activity against human U251 cells assessed cell growth at 10 uM after 48 hrs by sulforhodamine B assay relative to control
HT-29 = assay: Anticancer activity against human HT-29 cells assessed cell growth at 10 uM after 48 hrs by sulforhodamine B assay relative to control
SK-OV-3 = assay: Anticancer activity against human SKOV3 cells assessed cell growth at 10 uM after 48 hrs by sulforhodamine B assay relative to control
SR = assay: Anticancer activity against human SR cells assessed cell growth at 10 uM after 48 hrs by sulforhodamine B assay relative to control
MOLT-4 = assay: Anticancer activity against human MOLT4 cells assessed cell growth at 10 uM after 48 hrs by sulforhodamine B assay relative to control
COLO 205 = assay: Anticancer activity against human COLO205 cells assessed cell growth at 10 uM after 48 hrs by sulforhodamine B assay relative to control

Row | Structure (SMILES) | Activity (SN12C) [%] | Activity (OVCAR-5) [%] | Activity (PC-3) [%] | Activity (A549) [%] | Activity (SF-268) [%] | Activity (KM12) [%] | Activity (NCI-H23) [%] | Activity (UO-31) [%] | Activity (U-251) [%] | Activity (HT-29) [%] | Activity (SK-OV-3) [%] | Activity (SR) [%] | Activity (MOLT-4) [%] | Activity (COLO 205) [%]
1 | Cn1cc[n+](Cc2ccccc2)c1.F[P-](F)(F)(F)(F)F | 107.17 | 101.34 | 98.08 | 105.33 | 108.05 | 110.94 | 70.66 | 91.78 | 101.41 | 96.77 | 109.97 | 103.39 | 81.59 | 123.33
2 | CCCCCCCC[n+]1ccn(C)c1.[Cl-] | 93.85 | 101.85 | 97.45 | 85.73 | 95.77 | 81.14 | 62.26 | 85.09 | 79.77 | 69.97 | 98.42 | 88.57 | 81.09 | 97.68
3 | CCCCCC[n+]1ccn(C)c1.O=S(=O)([N-]S(=O)(=O)C(F)(F)F)C(F)(F)F | 90.25 | 105.87 | 105.34 | 78.86 | 109.15 | 100.77 | 89.09 | 84.29 | 96.82 | 88.19 | 95.29 | 126.57 | 100.94 | 100.66
4 | CCCCCC[n+]1ccn(C)c1.FC(F)(F)C(F)(F)[P-](F)(F)(F)(C(F)(F)C(F)(F)F)C(F)(F)C(F)(F)F | 87.26 | 105.17 | 86.43 | 56.87 | 103.36 | 91.54 | 45.51 | 71.06 | 78.65 | 66.89 | 85.24 | 77.17 | 81.53 | 97.72
5 | Cn1cc[n+](CCO)c1.O=S(=O)([N-]S(=O)(=O)C(F)(F)F)C(F)(F)F | 96.7 |  | 86.93 | 99.55 | 104.78 | 107.33 | 93.17 | 80.89 | 91.58 | 112.28 | 102.56 | 119.61 | 49.74 | 132.21
6 | COCC[n+]1ccn(C)c1.O=S(=O)([N-]S(=O)(=O)C(F)(F)F)C(F)(F)F | 96.96 | 112.96 | 78.17 | 101.69 | 107.22 | 105.57 | 96.12 | 71.37 | 91.58 | 111.85 | 107.49 | 116.69 | 105.9 | 130.61
7 | CCCCCCCC[n+]1ccn(C)c1.F[P-](F)(F)(F)(F)F | 86.03 | 96.06 | 74.78 | 82.75 | 96.73 | 71.32 | 51.9 | 77.77 | 70.41 | 61.42 | 69.29 | 95.02 | 86.46 | 66.27
8 | CCCCCCCC[n+]1ccn(C)c1.F[B-](F)(F)F | 97.45 | 92.12 | 83.86 | 89.22 | 103.08 | 79.57 | 59.28 | 76.51 | 73.04 | 70.49 | 81.16 | 87.14 | 92.94 | 77.64
9 | CCCCCCCCOS(=O)(=O)[O-].CCCCCCCC[n+]1ccn(C)c1 | 92.64 | 98.17 | 94.3 | 82.78 | 92.2 | 76.23 | 56.59 | 71.08 | 71.96 | 67.62 | 82.36 | 82.08 | 86.99 | 82.4
